Numbered stars: 1 amine (or outer) side, 2 acyl side, 3 side chain; on linkers, the order of the positions; unused ones are H or OH. Bridge positions count the residues as written; N and C are the ends. Square brackets hold non-standard residues; d marks the D form. Peptide text beside a SMILES is read from it. Ala(1H-tetrazol-5-yl) = N[C@@H](Cc1nnn[nH]1)C(=O)O; Phe(4-CF3) = N[C@@H](Cc1ccc(C(F)(F)F)cc1)C(=O)O; Trp(5-F) = N[C@@H](Cc1c[nH]c2ccc(F)cc12)C(=O)O; Trp(7-aza) = N[C@@H](Cc1c[nH]c2ncccc12)C(=O)O; Pro(cis-4-F) = O=C(O)[C@@H]1C[C@H](F)CN1; Phe(4-F) = N[C@@H](Cc1ccc(F)cc1)C(=O)O; mXylylene = c1cc(C[*:1])cc(C[*:2])c1; Ala(cPr) = N[C@@H](CC1CC1)C(=O)O; Hyp = O=C(O)[C@@H]1C[C@@H](O)CN1; NMeE = CN[C@@H](CCC(=O)O)C(=O)O; Aad = N[C@@H](CCCC(=O)O)C(=O)O; Chg = N[C@H](C(=O)O)C1CCCCC1; Tle = CC(C)(C)[C@H](N)C(=O)O; αMeV = CC(C)[C@](C)(N)C(=O)O; NMeS = CN[C@@H](CO)C(=O)O; NMeA = CN[C@@H](C)C(=O)O; Nva = CCC[C@H](N)C(=O)O; Ac4c = NC1(C(=O)O)CCC1; X4 = C(CC[*:2])C[*:1]; Mpa = O=C(O)CCS
Legend:
[1] = molecular target: human PCSK9 / human LDLR EGFa domain interaction (Homo sapiens, UniProt Q8NBP7); assay: TR-FRET assay of inhibition of the PCSK9-LDLR protein-protein interaction; assay type: binding; conditions: 20 nM avitag-biotinylated human PCSK9, 20 nM his-tagged human LDLR EGFa domain, 2 hours, room temperature
Summary of the method: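 Biotinylated PCSK9 (20 nM) and His-tagged LDLR EGFa domain (20 nM) were incubated 2 h at room temperature with 5 nM Ulight-streptavidin and 5 nM Eu-anti-His in HEPES/NaCl/CaCl2 buffer with 0.01% BSA and 0.01% P20. TR-FRET was read; half-maximal inhibitory concentrations came from 4-parameter dose-response fits.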

PCSK9 = PCSK9 (Homo sapiens, UniProt Q8NBP7); assay: PCSK9 Alexa FRET Standard assay (displacement of AlexaFluor647 tagged cyclic peptide Reagent A); assay type: binding; conditions: 0.5 nM PCSK9, 20 nM AF cyclic peptide Reagent A
Summary of the method: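 TR-FRET displacement: 0.5 nM biotinylated PCSK9 with 1.25 nM Strep-Eu and 20 nM AlexaFluor-tagged cyclic peptide (final) in 50 mM HEPES pH 7.4, 0.15 M NaCl, 5 mM CaCl2, 0.01% BSA, 0.01% P20, ≥2 h at room temperature. IC50 from sigmoidal fit, converted to Ki via peptide KD; falling Eu counts flagged false positives.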

Chain of PCSK9 (Q8NBP7 153-692): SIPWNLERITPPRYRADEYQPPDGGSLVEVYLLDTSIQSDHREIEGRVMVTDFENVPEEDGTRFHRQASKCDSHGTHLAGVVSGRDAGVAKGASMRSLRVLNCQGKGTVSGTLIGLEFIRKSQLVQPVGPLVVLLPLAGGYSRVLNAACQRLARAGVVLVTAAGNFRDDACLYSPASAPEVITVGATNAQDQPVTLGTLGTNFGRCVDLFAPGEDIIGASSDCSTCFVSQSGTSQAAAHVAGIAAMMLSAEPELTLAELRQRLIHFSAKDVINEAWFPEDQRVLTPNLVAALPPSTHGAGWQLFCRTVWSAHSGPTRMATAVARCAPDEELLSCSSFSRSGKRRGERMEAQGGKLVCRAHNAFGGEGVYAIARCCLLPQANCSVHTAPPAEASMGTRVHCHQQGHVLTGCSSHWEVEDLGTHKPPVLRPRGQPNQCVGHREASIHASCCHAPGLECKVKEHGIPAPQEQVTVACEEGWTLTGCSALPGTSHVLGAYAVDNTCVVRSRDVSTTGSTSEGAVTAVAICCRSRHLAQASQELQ
Chain of human PCSK9 / human LDLR EGFa domain interaction (Q8NBP7 153-692): as above
Chain of human PCSK9 / human LDLR EGFa domain interaction (Q8NBP7 31-152 partner limits assumed): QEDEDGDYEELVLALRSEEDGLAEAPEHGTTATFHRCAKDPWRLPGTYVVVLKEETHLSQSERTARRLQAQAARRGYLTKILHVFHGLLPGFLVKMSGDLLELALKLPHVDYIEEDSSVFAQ

SMILES	IC50 [1]	IC50 (PCSK9)
CCC[C@@H]1NC(=O)[C@H](Cc2ccc(O)cc2)NC(=O)[C@H](CCC(=O)O)NC(=O)[C@H](C)N(C)C(=O)[C@H](Cc2c[nH]c3ncccc23)NC(=O)[C@H]([C@@H](C)O)NC(=O)[C@H](Cc2c[nH]cn2)NC(=O)[C@H](Cc2ccc(O)cc2)NC(=O)[C@H](C(C)(C)C)NC(=O)CCSCc2cccc(c2)CSC[C@@H](C(N)=O)NC(=O)[C@H]([C@@H](C)O)NC1=O [Compound 207] ([Mpa][Tle]YHT[Trp(7-aza)][NMeA]EY[Nva]TC-NH2; linker 1-12 via mXylylene)	50000 to 100000 nM	50000 to 100000 nM
CCC[C@@H]1NC(=O)[C@H](Cc2ccc(O)cc2)NC(=O)[C@H](CCC(=O)O)N(C)C(=O)[C@H](CCC)NC(=O)[C@H](Cc2c[nH]c3ncccc23)NC(=O)[C@H]([C@@H](C)O)NC(=O)[C@H](Cc2c[nH]cn2)NC(=O)[C@H](Cc2ccc(O)cc2)NC(=O)[C@H](C(C)(C)C)NC(=O)CCSCc2cccc(c2)CSC[C@@H](C(N)=O)NC(=O)[C@H]([C@@H](C)O)NC1=O [Compound 208] ([Mpa][Tle]YHT[Trp(7-aza)][Nva][NMeE]Y[Nva]TC-NH2; linker 1-12 via mXylylene)	50000 to 100000 nM	50000 to 100000 nM
CCC[C@@H]1NC(=O)[C@H](Cc2c[nH]c3ncccc23)NC(=O)[C@H]([C@@H](C)O)NC(=O)[C@H](Cc2c[nH]cn2)NC(=O)[C@H](Cc2ccc(O)cc2)NC(=O)[C@H](C(C)(C)C)NC(=O)[C@@H](NC(C)=O)CSCc2cccc(c2)CSC[C@@H](C(N)=O)NC(=O)[C@H]([C@@H](C)O)NC(=O)[C@H](CCC)NC(=O)[C@H](Cc2ccc(O)cc2)NC(=O)[C@H](CCC(=O)O)NC1=O [Compound 235] (Ac-C[Tle]YHT[Trp(7-aza)][Nva]EY[Nva]TC-NH2; linker 1-12 via mXylylene)	100 to 1000 nM	1000 to 21000 nM
CCC[C@@H]1NC(=O)[C@H](Cc2ccc(O)cc2)NC(=O)[C@H](CCC(=O)O)NC(=O)[C@H](CCC)NC(=O)[C@H](Cc2c[nH]c3ncccc23)NC(=O)[C@H]([C@@H](C)O)NC(=O)[C@H](Cc2c[nH]cn2)NC(=O)[C@H](Cc2ccc(O)cc2)NC(=O)[C@H](C(C)(C)C)NC(=O)CCSCc2cccc(c2)CSC[C@@H](C(N)=O)NC(=O)[C@H](Cc2c[nH]cn2)NC1=O [Compound 247] ([Mpa][Tle]YHT[Trp(7-aza)][Nva]EY[Nva]HC-NH2; linker 1-12 via mXylylene)	100 to 1000 nM	1000 to 21000 nM
CCC[C@@H]1NC(=O)[C@H](Cc2c[nH]c3ncccc23)NC(=O)[C@H]([C@@H](C)O)NC(=O)[C@H](Cc2c[nH]cn2)NC(=O)[C@H](Cc2ccc(O)cc2)NC(=O)[C@H](C(C)(C)C)NC(=O)CCSCc2cccc(c2)CSC[C@@H](C(N)=O)NC(=O)[C@H]([C@@H](C)O)NC(=O)[C@H](CCC)NC(=O)[C@H](Cc2ccc(O)cc2)NC(=O)[C@H](Cc2nnn[nH]2)NC1=O [Compound 253] ([Mpa][Tle]YHT[Trp(7-aza)][Nva][Ala(1H-tetrazol-5-yl)]Y[Nva]TC-NH2; linker 1-12 via mXylylene)	100 to 1000 nM	1000 to 21000 nM
CCC[C@@H]1NC(=O)[C@H](Cc2c[nH]c3ncccc23)NC(=O)[C@H]([C@@H](C)O)NC(=O)[C@H](Cc2c[nH]cn2)NC(=O)[C@H](Cc2ccc(O)cc2)NC(=O)[C@H](C(C)(C)C)NC(=O)CCSCc2cccc(c2)CSC[C@@H](C(N)=O)NC(=O)[C@H]([C@@H](C)O)NC(=O)[C@H](CCC)NC(=O)[C@H](Cc2ccc(O)cc2)NC(=O)[C@H](CC(=O)O)NC1=O [Compound 254] ([Mpa][Tle]YHT[Trp(7-aza)][Nva]DY[Nva]TC-NH2; linker 1-12 via mXylylene)	100 to 1000 nM	1000 to 21000 nM
CCC[C@@H]1NC(=O)[C@H](Cc2c[nH]c3ncccc23)NC(=O)[C@H]([C@@H](C)O)NC(=O)[C@H](Cc2c[nH]cn2)NC(=O)[C@H](Cc2ccc(O)cc2)NC(=O)[C@H](C(C)(C)C)NC(=O)CCSCc2cccc(c2)CSC[C@@H](C(N)=O)NC(=O)[C@H]([C@@H](C)O)NC(=O)[C@H](CCC)NC(=O)[C@H](Cc2ccc(O)cc2)NC(=O)[C@H](CCCC(=O)O)NC1=O [Compound 259] ([Mpa][Tle]YHT[Trp(7-aza)][Nva][Aad]Y[Nva]TC-NH2; linker 1-12 via mXylylene)	100 to 1000 nM	1000 to 21000 nM
CCC[C@@H]1NC(=O)[C@H](Cc2c[nH]c3ncccc23)NC(=O)[C@H]([C@@H](C)O)NC(=O)[C@H](Cc2c[nH]cn2)NC(=O)[C@H](Cc2ccc(O)cc2)NC(=O)[C@H](C(C)(C)C)NC(=O)CCSCc2cccc(c2)CSC[C@@H](C(N)=O)NC(=O)[C@H]([C@@H](C)O)NC(=O)[C@H](CCC)NC(=O)[C@H](Cc2ccc(C(F)(F)F)cc2)NC(=O)[C@H](CCC(=O)O)NC1=O [Compound 260] ([Mpa][Tle]YHT[Trp(7-aza)][Nva]E[Phe(4-CF3)][Nva]TC-NH2; linker 1-12 via mXylylene)	1000 to 21000 nM	1000 to 21000 nM
CCC[C@@H]1NC(=O)[C@H](Cc2c[nH]c3ncccc23)NC(=O)[C@H]([C@@H](C)O)NC(=O)[C@H](Cc2c[nH]cn2)NC(=O)[C@H](Cc2ccc(O)cc2)NC(=O)[C@H](C(C)(C)C)NC(=O)CCSCc2cccc(c2)CSC[C@@H](C(N)=O)NC(=O)[C@H]([C@@H](C)O)NC(=O)[C@H](CCC)NC(=O)[C@H](Cc2c[nH]c3ccc(F)cc23)NC(=O)[C@H](CCC(=O)O)NC1=O [Compound 261] ([Mpa][Tle]YHT[Trp(7-aza)][Nva]E[Trp(5-F)][Nva]TC-NH2; linker 1-12 via mXylylene)	1000 to 21000 nM	1000 to 21000 nM
CCC[C@@H]1NC(=O)[C@H](Cc2c[nH]c3ccc(F)cc23)NC(=O)[C@H]([C@@H](C)O)NC(=O)[C@H](Cc2c[nH]cn2)NC(=O)[C@H](Cc2ccc(O)cc2)NC(=O)[C@H](C(C)(C)C)NC(=O)CCSCc2cccc(c2)CSC[C@@H](C(N)=O)NC(=O)[C@H]([C@@H](C)O)NC(=O)[C@H](CCC)NC(=O)[C@H](Cc2ccc(O)cc2)NC(=O)[C@H](CCC(=O)O)NC1=O [Compound 263] ([Mpa][Tle]YHT[Trp(5-F)][Nva]EY[Nva]TC-NH2; linker 1-12 via mXylylene)	100 to 1000 nM	1000 to 21000 nM
CCC[C@@H]1NC(=O)[C@H](Cc2ccc(O)cc2)NC(=O)[C@H](CCC(=O)O)NC(=O)[C@H](CC2CC2)NC(=O)[C@H](Cc2c[nH]c3ncccc23)NC(=O)[C@H]([C@@H](C)O)NC(=O)[C@H](Cc2c[nH]cn2)NC(=O)[C@H](Cc2ccc(O)cc2)NC(=O)[C@H](C(C)(C)C)NC(=O)CCSCc2cccc(c2)CSC[C@@H](C(N)=O)NC(=O)[C@H]([C@@H](C)O)NC1=O [Compound 264] ([Mpa][Tle]YHT[Trp(7-aza)][Ala(cPr)]EY[Nva]TC-NH2; linker 1-12 via mXylylene)	100 to 1000 nM	1000 to 21000 nM
CCC[C@@H]1NC(=O)[C@H](Cc2ccc(O)cc2)NC(=O)[C@H](CCC(=O)O)NC(=O)[C@H](Cc2ccc(F)cc2)NC(=O)[C@H](Cc2c[nH]c3ncccc23)NC(=O)[C@H]([C@@H](C)O)NC(=O)[C@H](Cc2c[nH]cn2)NC(=O)[C@H](Cc2ccc(O)cc2)NC(=O)[C@H](C(C)(C)C)NC(=O)CCSCc2cccc(c2)CSC[C@@H](C(N)=O)NC(=O)[C@H]([C@@H](C)O)NC1=O [Compound 265] ([Mpa][Tle]YHT[Trp(7-aza)][Phe(4-F)]EY[Nva]TC-NH2; linker 1-12 via mXylylene)	100 to 1000 nM	1000 to 21000 nM
CCC[C@@H]1NC(=O)[C@H](Cc2ccc(O)cc2)NC(=O)[C@H](CCC(=O)O)NC(=O)[C@H](C2CCCCC2)NC(=O)[C@H](Cc2c[nH]c3ncccc23)NC(=O)[C@H]([C@@H](C)O)NC(=O)[C@H](Cc2c[nH]cn2)NC(=O)[C@H](Cc2ccc(O)cc2)NC(=O)[C@H](C(C)(C)C)NC(=O)CCSCc2cccc(c2)CSC[C@@H](C(N)=O)NC(=O)[C@H]([C@@H](C)O)NC1=O [Compound 273] ([Mpa][Tle]YHT[Trp(7-aza)][Chg]EY[Nva]TC-NH2; linker 1-12 via mXylylene)	100 to 1000 nM	100 to 1000 nM
CCC[C@H](NC(C)=O)C(=O)N[C@H]1CSCc2cccc(c2)CSC[C@@H](C(N)=O)NC(=O)[C@H](Cc2c[nH]c3ccc(F)cc23)NC(=O)[C@@H]2C[C@H](F)CN2C(=O)[C@H](CCCNC(=N)N)NC(=O)CNC(=O)[C@H](CO)N(C)C(=O)[C@H](Cc2c[nH]c3ccc(F)cc23)NC(=O)[C@H](Cc2ccc(O)cc2)NC(=O)[C@H](C(C)(C)C)NC(=O)[C@H]([C@@H](C)CC)NC(=O)[C@H]([C@@H](C)O)NC1=O [Compound 337] (Ac-[Nva]CTI[Tle]Y[Trp(5-F)][NMeS]GR[Pro(cis-4-F)][Trp(5-F)]C-NH2; linker 2-13 via mXylylene)	1 to 100 nM	1 to 100 nM
CC(=O)N[C@H]1CSCc2cccc(c2)CSC[C@H](C(N)=O)NC(=O)[C@H]([C@@H](C)O)NC(=O)[C@](C)(C(C)C)NC(=O)[C@H](Cc2ccc(O)cc2)NC(=O)[C@H](C)NC(=O)C2(CCC2)NC(=O)[C@H](Cc2c[nH]c3ncccc23)NC(=O)[C@H]([C@@H](C)O)NC(=O)[C@@H]2C[C@@H]3CN2C(=O)[C@H](Cc2ccc(O)cc2)NC(=O)[C@H](NC1=O)[C@H](C)OCCCCO3 [Compound 343] (Ac-C[dT]Y[Hyp]T[Trp(7-aza)][Ac4c]AY[αMeV]T[dC]-NH2; linker 1-12 via mXylylene; linker 2-4 via X4)	21000 to 50000 nM	1000 to 21000 nM
